Patent US20240024255A1 (priority 2022, published 2024)
Marks after values point to notes of the source that are not given here.

Key:
[1] = format: in vitro ADME
Method: Briefly, 20 mL of the saline solution containing 1 mL plant extracts were acidified to pH 2.0 by adding porcine pepsin preparation (40 mg/mL in 0.1 M HCl) and allowed for gastric digestion at 37° C. in a shaker incubator. After 1 h, the pH of the solution was adjusted to 5.3 using 0.9 M NaHCO3 solution. To this added 200 μL of bovine and porcine bile extract solution (100 mg/mL in saline), and 100 μL of pancreatin solution (80 mg/mL in saline). The pH was readjusted to 7.5 using 1 M NaOH followed by incubation at 37° C. for 2 h to accomplish the intestinal digestion phase. Aliquots of samples before and after digestion were centrifuged at 5000 g; upper phase used for anti-lipase and antioxidant assays. The samples were further used for HPLC analysis to determine the bioavailability.
HPLC analysis of the samples before and after gastrointestinal digestion was performed following the in-house validated chromatographic conditions using a Shimadzu LC2030 C Prominence-i (Japan) system equipped with a high sensitivity LC2030 ultraviolet (UV) detector and LabSolutions software.

[2] = design: species or system Wistar rats; conditions: rat, in vivo, po, 1000 mg/kg
Method: Twelve healthy male Wistar rats aged 10-12-week-old (250-300 g) were used for the bioavailability study. The animals were procured from Biogen Laboratory Animal Facility, Bangalore, India (Reg No. 971/PO/RcBiBt/S/06/CPCSEA). All the animals were housed in air-conditioned room under temperature (22±3° C.) and humidity (30-70%) controlled environment. The rats were fed standard rodent diet and water ad libitum. The animal experimentation protocol was approved by the Institutional Animal Ethics Committee (IAEC) of Vidya Herbs Pvt Ltd., Bangalore, India (VHPL/PCL/IAEC/02/2021).
After 7-day acclimatization, the animals were fasted overnight prior to the experiment, with free access to water. […] The sample size was determined by power analysis (Festing and Altman, 2002) using the formula,
The extracts were formulated in a mixture of Cremaphor, Tween 80, ethanol, and water. The extracts were administered by oral gavage at a single dose of 1000 mg/kg. The animals were anesthetised in anaesthesia chamber supplied with 2% gaseous isoflurane. Blood samples were collected from tail vein at 0.25, 0.5, 1, 2, 4, 8, 12 and 24 h after oral administration of extracts. The blood samples collected in heparinized tubes were centrifuged at 3000 rpm for 10 min. The plasma samples were stored at −20° C. for further analysis. […]

[3] = test system: carrageenan-induced paw edema; assay: Carrageenan-induced acute inflammatory model (paw edema); format: in vivo, Wistar rats; conditions: Indomethacin 10 mg/kg.bw
Method: Wistar rats were randomly allotted into six groups (n=6) and kept for 7-day acclimatization. Group 1 was treated as control, group 2 received indomethacin 10 mg/kg.bw. […] All animal studies have been carried out by following the animal ethical guidelines and regulation of Institutional Animal Ethics Committee of Vidya Herbs Pvt. Ltd. Bangalore. India. with the protocol number VHPL/PCL/IAEC/08/19.
The carrageenan-induced paw edema test was performed in accordance with the method 17 with some modifications. Drugs were administered to all the respective groups. One hour later, the animals were injected with 0.01 mL of 1% (w/v) freshly prepared carrageenan solution into the right-hind paw sub plantar injection. Paw thickness and volume were measured after 30 min, 1, 2, 4, and 24 h after carrageenan injection using Vernier callipers and Plethysmometer, respectively. The percentage inhibition of inflammation was calculated.
Data were analyzed using one-way analysis of variance (ANOVA) with Duncan multiple range test for means ±standard error, where *P<0.001 was considered to indicate statistically significant difference between groups. All the experimental data were derived from three independent experiments.

[4] = target: Monoamine oxidase-B (MAO-B); assay: MAO-B inhibition assay (rat liver homogenate); format: biochemical
Method: The rat liver tissues were quickly removed to wash in ice-cold potassium phosphate buffer (0.2 M, pH 7.6), and stored at −80° C. 5 g of liver tissue was homogenized (1:20, w/v) in 0.3 M sucrose at 4° C. and centrifuged at 2000×g for 10 min. The supernatant was further centrifuged at 12000×g for 25 min. The resulting pellet suspended in minimal volume in 0.3 M sucrose and overlay on 1.3 M sucrose and centrifuge at 12000×g (40 min) to obtain a crude mitochondrial pellet. The pellet was resuspended in 2 mL 0.2 M phosphate buffer (pH 7.6) used as MAO-B enzyme source. Total protein concentration was measured by the method of Bradford and adjusted with buffer (0.2 M; pH 7.6) to 0.5 mg protein per ml (stock solution) and stored at −80° C. in aliquots until required.
The assay was carried out in 96-well microplates according to the process modified by Holt' et al. (1997). […] Paragyline was used as the standard inhibitor.

O=C(/C=C/c1ccc(O)cc1)CC(=O)/C=C/c1ccc(O)cc1 [BDMC, bisdemethoxycurcumin]
bioavailability with respect to undigested sample [1]: considerably higher
concentration in the samples at different digestive phases [1]: remained unchanged
AUC0-Last [2]: markedly increased

COc1ccc2c(c1)c(CC(=O)O)c(C)n2C(=O)c1ccc(Cl)cc1 [Indomethacin]
Paw thickness ([3]; 0 h): 2.41 ± 0.12 mm
Paw volume ([3]; 0 h): 1.12 ± 0.04 mL
Paw thickness ([3]; 0.5 h): 3.18 ± 0.09*** mm
Paw volume ([3]; 0.5 h): 1.32 ± 0.04** mL
Paw thickness ([3]; 1 h): 3.73 ± 0.07*** mm
Paw volume ([3]; 1 h): 1.57 ± 0.08*** mL
Paw thickness ([3]; 2 h): 3.12 ± 0.11*** mm
Paw volume ([3]; 2 h): 1.47 ± 0.06*** mL
Paw thickness ([3]; 4 h): 2.67 ± 0.09*** mm
Paw volume ([3]; 4 h): 1.37 ± 0.03*** mL
Paw thickness ([3]; 24 h): 2.43 ± 0.10*** mm
Paw volume ([3]; 24 h): 1.16 ± 0.05*** mL

C#CCN(C)Cc1ccccc1 [paragyline]
MAO-B IC-50 [4]: 6.5 µg/mL
